Experiments:
[1] = test system: genes for cytokines and their receptors; assay: cDNA microarray analysis of PTH-regulated genes in proximal tibial metaphysis; assay type: in vivo, rat; details: for genes regulated (of 8500 rat genes, Affymetrix): p<0.05
Description: Induction of parathyroid bone disease. Three month-old female Sprague-Dawley rats (Harlan Sprague-Dawley, Inc., Indianapolis, Ind.) were randomly divided into 3 groups, with 5 rats per group. In group 1 (pulsatile or intermittent PTH), each rat received 80 μg/kg/day human PTH (1-34) (hPTH) in vehicle (150 mM NaCl, 1 mM HCl and 2% heat-inactivated rat serum) by subcutaneous (s.c.) injection once daily for 7 days. In group 2 (vehicle), an osmotic pump (Alza Corp., Mountainview, Calif.) that delivered vehicle alone at a rate of 1 μl/hr for 7 days was implanted in each rat. In group 3 (continuous PTH), an osmotic pump that delivered 40 μg/kg/day hPTH at a rate of 1 μl/hr for 7 days was implanted in each rat. On day 8, all rats were anesthetized with ketamine (50 mg/kg): xylazine HCl (5 mg/kg) and sacrificed by decapitation. Both tibiae were removed from each rat. Right tibiae were fixed by immersion in 70% ethanol then processed for bone histology to verify the appearance of peritrabecular fibrosis. Left tibiae were frozen in liquid N2 and stored at −80° C. until processed for RNA isolation.
Isolation of RNA. Frozen proximal tibial metaphyses were individually homogenized in guanidine isothiocyanate using a Spex freezer mill (Industries, Inc., Edison, N.J.). Total RNA was extracted from the homogenate using a modified organic solvent method. See Chomczynski et al., Anal. Biochem., 162:156-159 (1987). Isolated RNA yields were determined spectrophotometrically at 260 nm using standard methods.
cDNA microarray analysis. cDNA probes were generated by reverse transcription (Superscript II, Life Technologies, Rockville, Md.) using 1 μg total RNA isolated from the proximal tibial metaphysis of rats in groups 1, 2, and 3. First-strand cDNA probes were primed by the addition of oligo dT and subsequently labeled with [α-^33P]dCTP (ICN Radiochemicals Costa Mesa, Calif.). The labeled probes then were purified by passage through a Sephadex G-50 DNA Grade Column (Amersham Pharmacia Biotech AB, Uppsala, Sweden). The purified probes were hybridized to a rat genefilter microarray containing 5531 genes (GF 300; Research Genetics, Huntsville, Ala.). according to the manufacturer's recommended protocol. A micro-array system from Affymetrix, which contains 8500 genes, also was used. After hybridization, the array was washed and wrapped with plastic wrap before placing in a phosphor imaging cassette containing a Cyclone Storage Phosphor Screen (Packard, Downers Groves, Ill.). After 24 hours, the screen was imaged and the resulting images analyzed using Pathways 2.01 software to compare the signal intensities of spots.
Candidate genes associated with peritrabecular fibrosis were identified with cDNA microarrays containing 5531 or 8500 genes as described in Example 1. Approximately 14% of the total genes measured were differentially expressed by at least 2.5-fold between pulsatile and continuous PTH-treated groups. […] Of the regulated genes, 158 were unique to intermittent administration of PTH and 759 to continuous administration of PTH. An additional 158 genes were common to both treatments.
The list of candidate genes was examined to determine if any of the genes encoded growth factors. More specifically, it was determined if the differentially expressed genes were growth factors produced on or near bone surfaces, were chemotactic to fibroblasts, were able to stimulate fibroblast proliferation, or could induce bone resorption. One of the candidate genes, PDGF, a known mitogenic and chemotactic factor for fibroblasts, met all these criteria.

Serum chemistry and PTH = assay type: in vivo, rat; details: rats
Description: Treatment protocol. Three month-old female Sprague-Dawley rats were divided into 4 groups. In group 1 (n=9), osmotic pumps that delivered vehicle alone at a rate of 1 μl/hr for 7 days were implanted in each rat. […] In groups 3 and 4 (n=8 and 10, respectively), osmotic pumps were implanted in each rat that delivered 40 μg/kg/day hPTH at a rate of 1 μl/hr for 7 days. […] Tetracycline (20 mg/kg, Sigma Chemical Co., St. Louis, Mo.) and calcein (20 mg/kg, Sigma) fluorochrome labels were injected at the base of the tail on day 0 (tetracycline) and day 6 (calcein). On day 8, all rats were anesthetized and blood was collected by cardiac puncture. The blood samples were used to determine serum chemistry and PTH levels. Following blood collection, the rats were sacrificed by cervical dislocation, and tibiae were surgically removed and fixed in 70% ethanol for bone histomorphometry.
Serum chemistry and PTH. Total serum calcium, phosphate, and magnesium levels were measured in rat blood samples by Central Clinical Laboratory Research at the Mayo Clinic using automated procedures. Serum PTH was measured using an immunoradiometric assay for rat PTH (Immunotopics International, LLC, San Clementa, Calif.) that has approximately 100% cross-reactivity to human PTH.
Serum and bone samples were collected after 7 days and analyzed.

[2] = test system: rat model for parathyroid bone disease; assay: Rat model for parathyroid bone disease: pulsatile vs continuous PTH, bone histomorphometry; assay type: in vivo; details: rats
[3] = test system: PTH-induced marrow fibrosis and osteoclast resorption; assay: Bone histomorphometry in rats given trapidil, continuous PTH or both; assay type: in vivo, rat; details: continuous PTH, significant upon two-way ANOVA
[4] = continuous PTH, rat proximal tibial metaphysis, gene microarray
[5] = continuous administration of PTH
[6] = intermittent administration of PTH
[7] = day 8, trapidil 40 mg/kg/day s.c. 7 days, hPTH 40 μg/kg/day continuous by osmotic pump 7 days, mean ± SEM
[8] = continuous PTH 40 μg/kg/day osmotic pump 7 days
[9] = continuous PTH 40 μg/kg/day osmotic pump 7 days, vs untreated control
[10] = continuous PTH infusion 40 μg/kg/d

total genes differentially expressed by at least […] between pulsatile and continuous PTH-treated groups ([1]; cDNA microarrays): Approximately 14%
BMP-1 gene expression, Fold Change [1, 4]: 1.3 fold
BMP-3 gene expression, Fold Change [1, 4]: 19 fold
BMP-6 gene expression, Fold Change [1, 4]: 1.6 fold
COX2 gene expression, Fold Change [1, 4]: 1.8 fold
FGF gene expression, Fold Change [1, 4]: 5.1 fold
FGF receptor-1 gene expression, Fold Change [1, 4]: 2.7 fold
IL-6 receptor gene expression, Fold Change [1, 4]: −1.2 fold
IL-12p40 gene expression, Fold Change [1, 4]: 1.3 fold
PGE2 receptor EP3 gene expression, Fold Change [1, 4]: 1.7 fold
PTH receptor gene expression, Fold Change [1, 4]: 3.8 fold
TGF-β1 gene expression, Fold Change [1, 4]: 1.5 fold
TGF-β3 gene expression, Fold Change [1, 4]: 1.9 fold
PDGF-A gene expression, Fold Change ([1]; continuous PTH, rat proximal tibial metaphysis, gene microarray, n = 5): 85 fold
number of regulated genes unique to the regimen [1, 5]: 759
genes regulated (of 8500 rat genes, Affymetrix) [1, 5]: 10.4%
number of regulated genes unique to the regimen [1, 6]: 158
genes regulated (of 8500 rat genes, Affymetrix) [1, 6]: 3.6%
number of regulated genes common to both treatments ([1]; intermittent and continuous PTH): 158
Substance: human PTH (1-34)
serum chemistry effect of continuous PTH (Serum chemistry and PTH; continuous PTH 40 μg/kg/day 7 days): induced hypercalcemia and hyperparathyroidism
Serum Calcium (Serum chemistry and PTH; [7]): 11.65 ± 0.28^ab mg/dl
Serum Magnesium (Serum chemistry and PTH; [7]): 2.49 ± 0.04 mg/dL
Serum PTH (Serum chemistry and PTH; [7]): 98.27 ± 11.12^ab pg/ml
Serum Phosphorus (Serum chemistry and PTH; [7]): 7.95 ± 0.48 mg/dL
time to increase in 3H-proline incorporation into bone matrix proteins ([2]; PTH s.c. 80 μg/kg/d): ≤ 24 h
time to increase in the number of fully mature osteoblasts ([2]; PTH s.c. 80 μg/kg/d): ≤ 3 days
time to upregulation of mRNA levels for bone matrix proteins (type I collagen, osteonectin, osteocalcin) ([2]; PTH s.c. 80 μg/kg/d): ≤ 16 h
Marrow fibrosis [2, 8]: Extensive^b
Osteoid surface [2, 8]: Extensive^b
Bone formation rate [2, 9]: ↑^a
Osteoblast perimeter [2, 9]: ↑^a
Osteoclast perimeter [2, 9]: ↑^b
mRNA levels for one matrix proteins [2, 9]: ↑^a
detrimental skeletal effects of continuous PTH [2, 10]: extensive peritrabecular fibrosis, osteomalacia, increased bone formation, and focal bone resorption
systemic side effects on reducing the dose rate [2, 10]: greatly reduced systemic side effects
systemic effects of continuous release ([2]; hPTH infused continuously 80 μg/kg/d, s.c. osmotic pump): severe hypercalcemia and weight loss
daily PTH pulse duration at which detrimental side effects were observed ([2]; programmed implantable osmotic pump, same quantity of PTH): ≥ 2 h
Bone formation rate ([2]; pulsatile PTH 80 μg/kg/day s.c. once daily 7 days, vs untreated control): ↑^a
effect on serum calcium levels ([2]; subcutaneous PTH 80 μg/kg/d): no effect
rate of mineral apposition [3]: slightly increased

Reference: patent US20030109537A1, “Methods and materials for treating bone conditions” (priority 2001, published 2003)
